# In PubChem BioAssay AID1918958 (Molecular Pharmacology Branch, DTP, NCI, 2023):
# pIC50: −log10 of the molar value. Several values for one entry are separate records, joined by “and”; a condition that tells them apart may be missing. Equal entries are not always repeated.
# System: NCI-H196 complex spheroid viability
# Assay: Anticancer human tumor NCI-H196 cell line growth inhibition [LSD1];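 also: spheroids exposed to agents for 7 days before readout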;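 as to viability, T/C: 100% = DMSO vehicle control viability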
# Settings: for viability, T/C: stronger effect = lower value
# From the text: Multicellular complex tumor spheroid response to LSD1 Inhibitor Iadademstat in combination with a variety of drugs and investigational agents in selected tumor cell lines
# The current study was undertaken to assess response to LSD1 inhibitors in combination with standard-of-care drugs and investigational agents in solid tumor complex spheroid models as well as in the K-562 leukemia. Complex spheroids include a stromal component modeled by human endothelial cells (HUVEC) and fibroblasts modeled by human mesenchymal stem cells (MSCs). The concentration ranges selected for each drug and investigational agent were based upon clinically achievable concentrations if the clinical Cmax of the agent was known.
# Compounds. The drugs and investigational agents used in this study are listed on Table 1. All of the agents used, including staurosporine (NSC755774) and gemcitabine (NSC613327), were obtained from the Developmental Therapeutics Program, NCI. FDA-approved anticancer drugs are available from the NCI at http://dtp.nci.nih.gov/branches/dscb/oncology_drugset_explanation.html. Drugs and investigational agents were >95% pure by proton nuclear magnetic resonance (NMR) and liquid chromatography/mass spectrometry (LC/MS). Stock solutions were prepared at 400x in DMSO, stored at -70 degrees C, and diluted in fresh medium prior to their use. The final concentration of DMSO in cell culture wells never exceeded 0.25% (v/v). The FDA-approved anticancer drug set is available from the Developmental Therapeutics Program at https://dtp.cancer.gov/organization/dscb/obtaining/available_plates.htm. All drugs and investigational agents were tested over a range starting from a high concentration at or near the clinical Cmax and decreasing in half-log increments. If the clinical Cmax for an agent had not been determined, the highest concentration tested was 10 microM.
# Cell Lines. The patient-derived cancer cell (PDC) lines: 292921-168-R-J2-PDC, K24384-001-R-PDC, and 521955-158-R2-J5-PDC pancreatic carcinomas, 556581-035-R-J1 ovarian carcinoma, 324938-238-R-J1-PDC, 855422-203-R-J1-PDC and 883617-216-R-J1-PDC urothelial bladder carcinomas, 743489-274-T-PDC renal cell carcinoma, 138582-R-J1 Merkel cell tumor, K60290-347-R-J1 and K57222-313-R-J1-PDC glioblastomas, 653999-131-R-J2-PDC, LG0703-F948-PDC, and 349418-098-R-PDC non-small cell lung carcinomas, 885512-296-R-J2-PDC, 171881-019-R-J1-PDC breast carcinomas and 186277-243-T-J2-PDC and 233499-124-R-J2-PDC colon carcinomas were obtained from the NCI Patient-Derived Models Repository (PDMR, https://pdmr.cancer.gov). The established cell lines NCI/ADR-RES (RRID:CVCL_14520 and OVCAR-5 (RRID:CVCL_1628) ovarian carcinomas, 786-O (RRID:CVCL_1051) and A498 (RRID:CVCL_A498) renal cell carcinoma, NCI-H211 (ATCC, cat. CRL-5824; RRID:CVCL_1529), NCI-H196 (ATCC, cat. CRL-5823, RRID:CVCL_1509), SW 1271 (ATCC, cat. CRL-2177, RRID:CVCL_1716) and NCI-H1876 (ATCC, cat. CRL-5902, RRID:CVCL_1503) small cell lung carcinomas, MDA-MB-231 (RRID:CVCL_0062) and MDA-MB-468 (RRID:CVCL_0419)breast carcinomas (10-12). Pooled donor human umbilical vein endothelial cells (HUVEC, Lonza, cat. CC-2519) and human mesenchymal stem cells (hMSC, Lonza, cat. PT-2501) were purchased from Lonza (Walkersville, MD).
# Cell Culture. All cells were maintained in an incubator at 37 degrees C and 5% CO2 with 95% humidity. The PDC lines were cultured according to standard operating procedures established by the NCI PDMR (https://pdmr.cancer.gov). Briefly all PDCs were thawed and cultured in Matrigel-coated flasks prepared with a working solution of 1X Ham's F-12 nutrient mix, without supplementation (Invitrogen, Waltham, MA, cat. 11765054), 100 U/mL penicillin-streptomycin (Invitrogen, cat. 15140122), and 2.5% Matrigel (Corning Inc., Corning, NY, cat. 354248) for the first three passages. […]
smiles,measurement,setting,value
Nc1ccccc1NC(=O)c1ccc(CNC(=O)OCc2cccnc2)cc1,"viability, T/C",compound 0.00949 µM,81.1% and 83.5%
same,"viability, T/C",compound 0.03 µM,65.5% and 73%
same,"viability, T/C",compound 0.0949 µM,42.2% and 39%
same,"viability, T/C",compound 0.3 µM,13.3% and 8.4%
same,"viability, T/C",compound 0.949 µM,0.4% and 0.47%
same,"viability, T/C",compound 3 µM,1.02% and 0.51%
same,pIC50,curve of compound,7.20 and 7.18
Cn1ncnc1C1c2n[nH]c(=O)c3cc(F)cc(c23)NC1c1ccc(F)cc1 (configuration not stated) + NC1CCC(NC2CC2c2ccccc2)CC1,pIC50,"curve of first compound, second compound 0.1 µM",< 7.00
same,pIC50,"curve of first compound, second compound 0.316 µM",< 7.00
same,pIC50,"curve of first compound, second compound 1 µM",< 7.00
same,pIC50,"curve of first compound, second compound 3.16 µM",< 7.00
same,pIC50,"curve of first compound, second compound 10 µM",< 7.00
same,"viability, T/C","second compound 0.1 µM, first compound 0.000316 µM",93.4%
same,"viability, T/C","second compound 0.1 µM, first compound 0.001 µM",110%
same,"viability, T/C","second compound 0.1 µM, first compound 0.00316 µM",95.6%
same,"viability, T/C","second compound 0.1 µM, first compound 0.01 µM",94.8%
same,"viability, T/C","second compound 0.1 µM, first compound 0.0316 µM",98.5%
same,"viability, T/C","second compound 0.1 µM, first compound 0.1 µM",99.6%
same,"viability, T/C","second compound 0.316 µM, first compound 0.000316 µM",100%
same,"viability, T/C","second compound 0.316 µM, first compound 0.001 µM",102%
same,"viability, T/C","second compound 0.316 µM, first compound 0.00316 µM",101%
same,"viability, T/C","second compound 0.316 µM, first compound 0.01 µM",92.8%
same,"viability, T/C","second compound 0.316 µM, first compound 0.0316 µM",93.9%
same,"viability, T/C","second compound 0.316 µM, first compound 0.1 µM",92.5%
same,"viability, T/C","second compound 1 µM, first compound 0.000316 µM",95.5%
same,"viability, T/C","second compound 1 µM, first compound 0.001 µM",98.4%
same,"viability, T/C","second compound 1 µM, first compound 0.00316 µM",97.4%
same,"viability, T/C","second compound 1 µM, first compound 0.01 µM",98.1%
same,"viability, T/C","second compound 1 µM, first compound 0.0316 µM",94.3%
same,"viability, T/C","second compound 1 µM, first compound 0.1 µM",94.4%
same,"viability, T/C","second compound 3.16 µM, first compound 0.000316 µM",90.7%
same,"viability, T/C","second compound 3.16 µM, first compound 0.001 µM",99.8%
same,"viability, T/C","second compound 3.16 µM, first compound 0.00316 µM",98.3%
same,"viability, T/C","second compound 3.16 µM, first compound 0.01 µM",88.8%
same,"viability, T/C","second compound 3.16 µM, first compound 0.0316 µM",95.9%
same,"viability, T/C","second compound 3.16 µM, first compound 0.1 µM",93.9%
same,"viability, T/C","second compound 10 µM, first compound 0.000316 µM",97.2%
same,"viability, T/C","second compound 10 µM, first compound 0.001 µM",106%
same,"viability, T/C","second compound 10 µM, first compound 0.00316 µM",95.9%
same,"viability, T/C","second compound 10 µM, first compound 0.01 µM",104%
same,"viability, T/C","second compound 10 µM, first compound 0.0316 µM",94.3%
same,"viability, T/C","second compound 10 µM, first compound 0.1 µM",91.3%
